Assay results: patent publication US5654282A, “Selectin binding glycopeptides” (Glycomed Incorporated, priority 1995, dated 1997)

What was measured:
L-selectin [1] = test: ELISA assay, selectin-IgG chimera binding to 2,3 sLex glycolipid (L-selectin); settings: FIG. 4; tested at several concentrations; results expressed as percent of control binding; values only in the figure
Protocol: (§1) An ELISA assay (Foxall et al, The Journal of Cell Biology (1992) 117:895) is preferably used which consists of the following three steps:
(§2) 1. 2,3 sLex glycolipid is transferred into microtitre wells as solutions and then evaporated off. Excess, which remained unattached, is washed off with water. The wells are then blocked with a blocking agent, preferably BSA.
(§3) 2. Preparation of "multivalent" receptor of the Selectin-IgG chimera is carried out by combining the respective chimera with biotin labelled goat F(ab')2 anti-human IgG (Fc specific) and streptavidin-alkaline phosphatase diluted appropriately and incubated. This allows the soluble multivalent receptor complex to form.
(§4) 3. Potential inhibitors such as glyco-amino acids or glycopeptides of structural formula I are allowed to react with the soluble receptor. This solution is then placed in the microtitre wells that are prepared in step 1. The plate is incubated to allow the soluble receptor to bind to its natural ligand. In the presence of a strong inhibitor only a few of the receptors should be free to bind to the microtitre plate coated with the natural ligand.
(§5) The positive control is the signal produced by the soluble receptor when it is allowed to react with the natural ligand in the microtitre wells in the absence of any inhibitor. This is considered 100% binding. The signal produced by the receptor that is previously treated with an inhibitor (recorded as O.D.), is divided by the signal produced by the positive control and multiplied by 100 to calculate the % receptor bound to the well in the presence of the inhibitor. The reciprocal of this is the % inhibition.
(§6) The glyco-amino acids or glycopeptides of structural formula I can be tested for their ability to bind to a selectin receptor and/or block the binding site of the receptor and thereby prevent a natural ligand from binding to the selectin receptor (Foxall et al, The Journal of Cell Biology (1992) 117:895). A generalized procedure for testing the ligands is given below.
(§7) An ELISA assay is preferably used which consisted of the following three steps:
1. 2,3 sLex glycolipid (25 picomol/well) was transferred into microtitre wells as solutions and evaporated off. Excess, which remained unattached, was washed off with water. The wells were blocked with 5% BSA at room temperature for an hour and washed with PBS containing 1 mM calcium.
2. Preparation of "multivalent" receptor of the Selectin-IgG chimera was carried out by combining the respective chimera (1 μg/mL) with biotin labelled goat F(ab')2 anti-human IgG (Fc specific) and streptavidin-alkaline phosphatase diluted 1:1000 in 1% BSA-PBS (1 mM calcium) and incubating at 37° C. for 15 min. This allowed the soluble multivalent receptor complex to form.
3. Potential inhibitors such as glyco-amino acids or glycopeptides of structural formula I were allowed to react with the soluble receptor at 37° C. for 45 min. This test assumes that optimal binding, between the soluble phase receptor complex and the inhibitor (non-natural ligand), would occur within this time frame. This solution was placed in the microtitre wells that were prepared in step 1. The plate was incubated at 37° C. for 45 minutes to allow the soluble receptor to bind to its natural ligand. In the presence of a strong inhibitor only a few receptors would be free to bind to the microtitre plate coated with the natural ligand.
as §5, with “control was” for “control is”, “it was” for “it is”, “This was” for “This is”, “that was” for “that is”, “O.D.), was” for “O.D.), is”

P-selectin [2] = test: ELISA assay, selectin-IgG chimera binding to 2,3 sLex glycolipid (P-selectin); settings: FIG. 5; tested at several concentrations; results expressed as percent of control binding; values only in the figure
Protocol: as §1, §2, §3, §4, §5, §6, §7
1. 2,3 sLex glycolipid (25 picomol/well) was transferred into microtitre wells as solutions and evaporated off. Excess, which remained unattached, was washed off with water. […]
as §5, with “was” for “is”, “This is considered 100% binding.” left out, “The reciprocal of this is the % inhibition.” left out

P-selectin [3] = test: P-Selectin/HL-60 assay; format: cell-based; settings: FIG. 6; HL-60 cells; tested at several concentrations; values only in the figure
Description: The glyco-amino acids or glycopeptides of structural formula I can be tested for their ability to inhibit P-selectin binding to its native ligand. A generalized procedure for testing the ligands is given below. A P-selectin/HL-60 assay is preferably used which consists of the following steps:
1. HL-60 cells are harvested and pelleted by centrifugation. The cells are washed, counted and the volume adjusted appropriately.
2. PVC microtiter plate is blocked with a blocking agent, and washed with TBS-BSA.
3. P-selectin is diluted appropriately in BSA-TBS Ca containing goat F(ab')2 anti-human IgG (Fc spec) and streptavidin-alkaline phosphatase. Positive controls have DMF added to equal the highest concentration of DMF in the sample compounds.
4. Ligands are incubated at room temperature with brisk rotation. […]
Para-nitrophenylphosphonate is added to the plate. […] Aliqouts from each well is transferred to a polystyrene microtiter plate and O.D. read at 405 nm. […] The signal produced by the receptor that is previously treated with an inhibitor (recorded as O.D.), is divided by the signal produced by the positive control and multiplied by 100 to calculate the % receptor bound to the well in the presence of the inhibitor. […]
1. […] The cells were washed three times with TBS without Ca, counted and the volume adjusted to 1.9×10^6 /ml in 1% BSA-TBS Ca just prior to use. […]

L-selectin [4] = test: Stamper-Woodruff assay (lymphocyte adhesion to HEV of lymph node frozen sections); format: cell-based, Swiss Webster mice; Sprague-Dawley rats; settings: FIG. 7; lymphocyte binding to HEV, percent of relative binding; values only in the figure
Description: (§8) Lymphocytes are known to circulate from blood to lymphoid tissues via high endothelial venules (HEV) on lymph nodes. L-selectin is expressed on the surface of lymphocytes and is believed to mediate lymphocyte adhesion by binding to the natural ligand on the HEV. The glyco-amino acids or glycopeptides of structural formula I can be tested for their ability to bind to a selectin receptor and/or block the binding site of the receptor and thereby prevent a natural ligand from binding to the selectin receptor. See, for example, Stoolman et al, The Journal of Cell Biology (1983) 96:722. The Stamper-Woodruff assay is well known in the art, and generally consists of the following three steps:
1. Preparation of the lymphocytes:
(a) The lymphocytes are obtained from the mesenteric nodes of female Swiss Webster mice, by gently teasing tissues with phosphate buffered saline (PBS). The cells are obtained by gently squeezing the cells from the tissues. The cells are dispersed and the cell clumps are removed. The single cell suspension is suspended, washed, and kept on ice until use (less than two hours). Cells are counted and prepared at an appropriate concentration.
(b) The superficial and deep cervical lymph nodes of female Sprague-Dawley rats are dissected and prepared in the same way as the mice.
2. Preparation of frozen sections:
Superficial or deep cervical lymph nodes are dissected from the animals, snap frozen, and immediately placed in a cryostat for sectioning. 10-μm sections are prepared and transferred onto glass slides, and air dried.
3. Potential inhibitors are added to lymphocyte suspensions 10-30 minutes before the start of the binding assay, and unless otherwise stated, are present throughout the subsequent binding incubation.
The frozen sections are used in the order in which they are cut. Aliquots of untreated lymphocytes (positive control), suspensions containing fucoidin (negative control) and suspensions containing potential inhibitors are layered on the sections in an arbitrary sequence such that the control and each test substance are represented once in a series.
The binding of the lymphocytes to the HEV is easily distinguishable from binding elsewhere by virtue of the characteristic picture of tightly packed, darkly stained lymphocytes overlaying the histologically distinctive HEV. The number of adherent lymphocytes on each HEV are counted and the average number of adherent cells per HEV (cells bound per HEV) is calculated. The results are expressed as a percent of relative binding, wherein the positive control is considered to be 100% binding.
as §8, with “were” for “can be”
(a) The lymphocytes were obtained from the mesenteric nodes of female Swiss Webster mice (23-27 g), by gently teasing tissues by phosphate buffered saline (PBS). […] Cells were counted and prepared at 3-4×10^7 cells/ml. […]

| Structure (SMILES) | inhibition of the binding of sLe^x to L-selectin (L-selectin [1]) | inhibition of the binding of sLe^x to P-selectin (P-selectin [2]) | inhibition of the binding of sLe^x to P-selectin in the HL-60 assay (P-selectin [3]) | inhibitory effects in the Stamper-Woodruff assay (cell adhesion) (L-selectin [4]) |
| --- | --- | --- | --- | --- |
| C[C@@H]1O[C@@H](CC(=O)N2CCC[C@H]2C(=O)N[C@@H](Cc2ccccc2)C(=O)O)[C@@H](O)[C@H](O)[C@@H]1O [#1, N-[(1-deoxy-α-L-fucopyranosyl)acetyl]-L-proline-L-phenylalanine] | inhibit the binding of sLe^x to L-selectin | inhibit the binding of sLe^x to P-selectin | inhibit the binding of sLe^x to P-selectin | inhibitory effects |
| C[C@H](NC(=O)C[C@@H]1O[C@@H](C)[C@@H](O)[C@@H](O)[C@@H]1O)C(=O)N1CCC[C@H]1C(=O)N[C@@H](Cc1ccccc1)C(=O)O [#2, N-[(1-deoxy-α-L-fucopyranosyl)acetyl]-L-alanine-L-proline-L-phenylalanine] | inhibit the binding of sLe^x to L-selectin |  | inhibit the binding of sLe^x to P-selectin | inhibitory effects |
| C[C@@H]1O[C@@H](CC(=O)N[C@@H](CCCCNC(=O)OC(C)(C)C)C(=O)O)[C@@H](O)[C@H](O)[C@@H]1O [#3, N-ω-t-butoxylcarbonyl-N-α-[(1-deoxy-α-L-fucopyranosyl)acetyl]-L-lysine] | inhibit the binding of sLe^x to L-selectin | inhibit the binding of sLe^x to P-selectin |  | inhibitory effects |
| C[C@@H]1O[C@@H](CCCC(=O)N2CCC[C@H]2C(=O)N[C@@H](Cc2ccccc2)C(=O)O)[C@@H](O)[C@H](O)[C@@H]1O [#4, N-[4-(1-deoxy-α-L-fucopyranosyl)n-butanoyl]-L-proline-L-phenylalanine] | inhibit the binding of sLe^x to L-selectin | inhibit the binding of sLe^x to P-selectin |  | inhibitory effects |
| C[C@@H]1O[C@@H](CC(=O)N2CCC[C@H]2C(=O)N[C@H](C(=O)O)c2ccccc2)[C@@H](O)[C@H](O)[C@@H]1O [#5, N-[(1-deoxy-α-L-fucopyranosyl)acetyl]-L-proline-L-phenylglycine] | inhibit the binding of sLe^x to L-selectin | inhibit the binding of sLe^x to P-selectin |  | inhibitory effects |
| CC1OC(CCCC(=O)NC(Cc2ccccc2)C(=O)O)C(O)C(O)C1O [#6, N-[4-(1-deoxy-α-L-fucopyranosyl)n-butanoyl]-L-phenylalanine] | inhibit the binding of sLe^x to L-selectin |  |  |  |
